The values below are quoted from earlier work in patent publication US20040229941A1, “Analeptic and antidepressant combinations” (Cephalon, Inc., priority 2003, published 2004).

SMILES strings stand for the structures.

The conditions of the data set: at 6 weeks of antidepressant therapy.

As for `CNCCC(Oc1ccc(C(F)(F)F)cc1)c1ccccc1` (stereo not shown) [fluoxetine], the response result is “about 50%”.
